US20100047841A1, “SYNTHESIS OF DESACETOXYTUBULYSIN H AND ANALOGS THEREOF” (University of Pittsburgh-of the Commonwealth System of …, priority 2007, published 2010)
Read-outs that look alike come from different tables or passages of the source.

What was measured:
[1] = tested on: T98G human glioblastoma cell line; experiment: Antiproliferative assay (MTS), GI50 in T98G cells; format: cell-based
Description: General methods are known for determining the effect of compounds on proliferation of cells. See, e.g., Zhu et al., J. Med. Chem., 2006, 49, 2063-2076. Cells can be selected by one of skill in the art and can be maintained as exponentially growing cultures in a suitable medium (e.g., RPMI 1640 medium) with adjuvents, including FBS, penicillin, and glutamine, provided at levels known to those skilled in this field. For human cancer cells, e.g., human glioblastoma cell line T98G, the cells can be trypsinized and washed prior to formation of a cell suspension in appropriate buffer and plating of the cell suspension. Typical microtiter plate amounts can be 500-2000 cells/well. The cells can be allowed to attach and grow for a defined time period (e.g., 36 hours, 72 hours, 96 hours, or other defined period) before treatment with either vehicle (e.g., dimethylsulfoxide) or test agent (e.g., compound of the invention) followed by an additional defined time period (e.g., 36 hrs, 72 hrs, 96 hrs, and the like). At the end of the additional defined time period, viability of the cells can be determined by any of a variety of methods known in the art, including assays employing MTS (3-(4,5-dimethylthiazol-2-yl)-5-(3-carboxymethoxyphenyl)-2-(4-sulfophenyl)-2H-tetrazolium), as described by -Cory et al., Cancer Commun., 1991, 3, 207-212. […] Replicates are typically assayed to allow determination of appropriate statistical properties as known in the art.
Compounds of the invention with structures of Formulae Xa, XVb, and XVa were assayed for inhibition of growth of the T98G human glioblastoma cell line (Table II).
Human glioblastoma T98G cells (American Type Culture Collection, Manassas, Va.) were maintained as exponentially growing cultures in an RPMI 1640 medium with 10% FBS, 1% penicillin and 1% glutamine. The cells were seeded into 96-well plates and allowed to attach and grow for 48 hours. One plate of cells was used for a time zero cell number determination (N=16), and cells in other plates were treated for 72 hours or 96 hours with either DMSO (1% v/v; N=8 for each plate) or a range of concentrations, in quadruplicate, of test agents. Cell number was determined spectrophotometrically at 490 nm minus absorbance at 630 nm after exposure to 3-(4,5-dimethylthiazol-2-yl)-5-(3-carboxymethoxyphenyl)-2-(4-sulfophenyl)-2H-tetrazolium (MTS) and N-methylphenazine methylsulfate. The fifty percent growth inhibitory concentrations (GI50) of test agents were calculated from the spectrophotometrically determined growth of the control cells over the 72- or 96-hour period.

[2] = tested on: bovine brain tubulin (vinca domain); experiment: Inhibition of [3H]vinblastine binding to tubulin (centrifugal gel filtration); details: 10 μM radiotracer, 10 μM tubulin; for % Inhibition of [3H]vinblastine binding by 5 μM test agent: 30 min room temperature; for IC50: test agent 0.5-100 μM, Hill fit
Description: (§1) The new compounds were tested for their abilities to bind at the vinca domain and at the related peptide/depsipeptide site on tubulin using a modification of a centrifugal gel filtration method described by Bai et al., Mol. Pharmacol. 7: 965-76 (1995). In the initial screens, each 0.32 mL reaction mixture contained 5 μM test agent and 10 μM [^3H]vinblastine (specific activity 8.50 Ci/mmol; GE Healthcare Bio-Sciences, Picataway, N.J.) or 10 μM [^3H]dolastatin 10 (specific activity 1.96 Ci/mmol; obtained from the Drug Synthesis and Chemistry Branch of the National Cancer Institute) predissolved in DMSO (final concentration 1% v/v) and 10 μM bovine brain tubulin, all in 0.1 M 2-(4-morpholino)ethanesulfonic acid (Mes), pH 6.9, containing 0.5 mM MgCl2. The mixture was incubated for 30 min at room temperature. Two 0.15 mL aliquots of the reaction mixture were applied to duplicate 2 mL beds of pre-swollen (in Mes, pH 6.9, containing 0.5 mM MgCl2) Sephadex G-50 (superfine) contained in Handee columns (Pierce Biotechnology, Rockford, Ill.). The columns were centrifuged at 800×g for 4 minutes and the protein concentration in the effluent was determined, using the bicinchoninic acid assay. The amount of radiolabeled ligand bound to tubulin was determined using scintillation spectrometry. Each value represents the mean ±SD of four determinations. […] Inhibition was calculated as the percent difference relative to that of the control incubation with DMSO (i.e., without test agent—assigned as 0% inhibition). […] GraphPad Prism was used to fit the resulting data to the Hill equation to determine the IC50 values.

[3] = tested on: bovine brain tubulin; experiment: Inhibition of GTP-induced tubulin assembly (turbidimetry at 350 nm); format: biochemical; details: after 20 min at 30° C., 10 μM bovine brain tubulin, 0.8 M monosodium glutamate
Description: Bovine brain tubulin was isolated to electrophoretic homogeneity from fresh brains via methodology described by Hamel and Lin, Biochemistry 23: 4173-84 (1984). Tubulin (final concentration 10 μM; 1 mg/mL) was preincubated with test agents dissolved in DMSO (4% v/v final concentration) and monosodium glutamate (0.8 M final concentration, pH 6.6) for 15 minutes at 30° C. The reaction mixture was cooled to 0° C., and GTP (0.4 mM final concentration) was added. Reaction mixtures were transferred to cuvettes held at 2.5° C. in a Beckmann DU 7400 multichannel, temperature-controlled (Peltier unit) spectrophotometer, reading absorbance (turbidity) at 350 nm in each cuvette every 15 seconds. Baselines were established and temperature was quickly raised to 30° C. (in approximately 1 minute). After 20 minutes, the temperature was returned to 2.5° C. The turbidity value after 20 minutes at 30° C. for GTP alone was assigned as 100% assembly, and for DMSO alone as 0% assembly. The IC50 was calculated by linear regression of the percent assembly values at the same time point obtained with 0.625, 1.25, 2.5, 5, 10 and 20 μM test agent. In experiments to test for disassembly of preformed tubulin polymer, the test agent was added after 7 minutes of GTP-induced assembly.

[4] = tested on: bovine brain tubulin (peptide/depsipeptide site); experiment: Inhibition of [3H]dolastatin 10 binding to tubulin (centrifugal gel filtration); details: 10 μM radiotracer, 10 μM tubulin; for % Inhibition of [3H]dolastatin 10 binding by 5 μM test agent: 30 min room temperature
Description: as §1

[5] = tested on: HeLa human cervical carcinoma cells; experiment: High-content analysis of mitotic arrest in HeLa cells; format: cell-based; details: for Microtubule Density MDEC (minimum detectable effective concentration) / Mitotic Index MDEC (percentage of phosphohistone H3-positive cells) / Nuclear Condensation MDEC (minimum detectable effective concentration) / EC50: 20 hours treatment, average of four experiments ± SD; for EC50: Homo sapiens, read-out: Cell Density EC50; for activity in high-content analysis of mitotic arrest (in words): all endpoints measured
Description: The effects of tubulysin analogs on mitotic arrest and cellular microtubules were studied. HeLa human cervical carcinoma cells (10,000 per well) were plated in collagen-1 coated 384-well microplates and were treated with vehicle (DMSO) or ten two-fold concentration gradients of test agents within 4-6 hours of seeding. Cells were incubated for 20 hours at 37° C., fixed with formaldehyde, and labeled with 10 μg/mL Hoechst 33342 in Hank's balanced salt solution (HBSS). Cells were permeabilized with 0.5% (w/w) Triton X-100 for 5 min at room temperature and incubated with a primary antibody cocktail consisting of an HBSS solution containing rabbit polyclonal anti-phosphohistone H3 (Ser10, 1:500, Upstate), and mouse monoclonal anti-α-tubulin (1:3000, Sigma), followed by a mixture of FITC-labeled donkey anti-mouse IgG (1:500) and Cy3-labeled donkey anti-rabbit IgG (1:500). Cells were rinsed once with HBSS and stored at 4° C. in HBSS until analysis.
Microplates were analyzed with an ArrayScanII instrument (Cellomics, Pittsburgh, Pa.) using the Target Activation Bioapplication (Cellomics, Inc.). Within the application, 1,000 individual cells in each well were imaged at three different wavelengths, using an Omega XF93 filter set at excitation/emission wavelengths of 350/461 nm (Hoechst), 494/519 nm (FITC), and 556/573 nm (Cy3). The following parameters were used for data analysis: average nuclear intensity, nuclei per field, average nuclear FITC intensity, and average nuclear Cy3 intensity. A nuclear mask was generated from Hoechst 33342-stained nuclei. Microtubule density and histone H3 phosphorylation were measured in the FITC and Cy3 channel, respectively. Microtubule density was defined as the average green (FITC) pixel intensity in an area defined by the nuclear mask. For determination of mitotic index and nuclear condensation, thresholds for Hoechst 33342 and phosphohistone-H3 intensities were defined as the average Hoechst 33342 or Cy3 intensity plus one standard deviation from twenty-eight vehicle-treated wells placed in the center of the microplate.
Cells were classified as positive if their average Hoechst 33342 or Cy3 intensity exceeded this threshold. To illustrate visually the effects of test agents on cellular microtubules and mitotic arrest, the identical 384-well plates then were used to acquire higher resolution images of selected wells.
Asynchronously growing HeLa cells were treated for 20 hours with each compound in collagen-coated 384 well microplates, fixed, and incubated with primary antibodies for tubulin and the mitotic marker protein phosphohistone H3, followed by FITC and Cy3-conjugated secondary antibodies, respectively. Cells were detected by nuclear counterstaining with Hoechst 33342, which also provided information about chromatin condensation and cell density as markers of cell death.

[6] = tested on: bovine brain tubulin (vinca domain); experiment: Inhibition of [3H]vinblastine binding to tubulin (centrifugal gel filtration); details: 50 μM test agent
[7] = Homo sapiens, T98G, 72 h (value in parentheses), ±SD, n = 4, Table IV, read-out: GI50 at (72 h) in T98 glioblastoma cells
[8] = Homo sapiens, T98G, 96 h, ±SD, n = 4, Table IV, read-out: GI50 at 96 h in T98 glioblastoma cells

| SMILES | GI50 ([1]; 72 h (value in parentheses), ±SD, n = 4, Table IV, read-out: GI50 at (72 h) in T98 glioblastoma cells) [nM] | GI50 ([1]; 96 h, ±SD, n = 4, Table IV, read-out: GI50 at 96 h in T98 glioblastoma cells) [nM] | % Inhibition of [3H]vinblastine binding by 5 μM test agent [2] [%] | IC50 [2] [nM] | IC50 [3] [nM] | GI50 [1, 7] [nM] | GI50 [1, 8] [nM] | % Inhibition of [3H]dolastatin 10 binding by 5 μM test agent [4] [%] | Microtubule Density MDEC (minimum detectable effective concentration) [5] [nM] | Mitotic Index MDEC (percentage of phosphohistone H3-positive cells) [5] [nM] | Nuclear Condensation MDEC (minimum detectable effective concentration) [5] [nM] | EC50 [5] [nM] | activity in high-content analysis of mitotic arrest (in words) [5] | GI50 ([1]; Homo sapiens, T98G cells, 72 h exposure, Table II, read-out: GI50 in T98G cell, 72 h) [nM] | GI50 ([1]; Homo sapiens, T98G cells, 96 h exposure, Table II, read-out: GI50 in T98G cell, 96 h) [nM] | GI50 ([1]; Homo sapiens, T98G cells, after 72 hrs exposure, read-out: GI50) [nM] | % Inhibition of [3H]vinblastine binding @50 μM [6] | IC50 ([4]; test agent 0.5-100 μM, Hill fit) [nM] |
| --- | --- | --- | --- | --- | --- | --- | --- | --- | --- | --- | --- | --- | --- | --- | --- | --- | --- | --- |
| CC[C@H](C)[C@@H]([C@@H](CC(=O)N1CCC[C@H]1[C@H](OC)[C@@H](C)C(=O)N[C@@H](Cc1ccccc1)c1nccs1)OC)N(C)C(=O)[C@@H](NC(=O)[C@H](C(C)C)N(C)C)C(C)C [dolastatin 10, reference compound] | 0.1 | 0.056 ± 0.025 | 61 ± 1 | 4600 ± 500 | 1400 |  |  |  |  |  |  |  |  |  |  |  |  |  |
| CC[C@]1(O)C[C@@H]2CN(CCc3c([nH]c4ccccc34)[C@@](C(=O)OC)(c3cc4c(cc3OC)N(C)[C@H]3[C@@](O)(C(=O)OC)[C@H](OC(C)=O)[C@]5(CC)C=CCN6CC[C@]43[C@@H]65)C2)C1 [vinblastine, reference compound] |  |  |  |  | 1600 | 8.6 | 1 ± 0.6 | 5 ± 6 |  |  |  |  |  |  |  |  |  |  |
| CC(=O)O[C@H]1C(=O)[C@@]2(C)[C@H]([C@H](OC(=O)c3ccccc3)[C@]3(O)C[C@H](OC(=O)[C@H](O)[C@@H](NC(=O)c4ccccc4)c4ccccc4)C(C)=C1C3(C)C)[C@]1(OC(C)=O)CO[C@@H]1C[C@@H]2O [paclitaxel, reference compound] |  |  |  |  |  | 24 | 12 ± 7 |  | 7.0 ± 2.9 | 4.2 ± 3.6 | 10.2 ± 8.2 | 11.3 ± 2.7 | nanomolar activity | 24 ± 9 | 12 ± 7 | ~24 |  |  |
| CC[C@]1(O)C[C@H]2CN(CCc3c([nH]c4ccccc34)[C@@](C(=O)OC)(c3cc4c(cc3OC)N(C=O)[C@H]3[C@@](O)(C(=O)OC)[C@H](OC(C)=O)[C@]5(CC)C=CCN6CC[C@]43[C@@H]65)C2)C1 [vincristine, reference compound] |  |  | 65 ± 2 | 4400 ± 700 |  |  |  | 21 ± 5 | 10.5 ± 10.1 | 4.1 ± 1.9 | 2.6 ± 2.0 | 19.7 ± 10.7 | nanomolar activity |  |  |  | (@50 μM: 98 ± 1%) | 29000 ± 5000 |
